Here are results for 14 molecules from patent US20240059689A1, “PURINE DERIVATIVES AS ANTICANCER AGENTS” (Tango Therapeutics, Inc., priority 2021, published 2024).

The structures appear in SMILES notation. Where only a bound is given, the exact number is not on record here.

The target of test [1] is USP1-UAF1 (Homo sapiens, UniProt O94782). Kind of test: Ubiquitin Rhodamine assay of USP1-UAF1 activity. It counts as biochemical. The procedure:
Certain compounds of the disclosure were assessed for USP1-UAF1 activity in a Ubiquitin Rhodamine assay as described in Biology Example 1.

For test [2], the system named is HCC1954. As to the kind of experiment: Viability assay, BRCA1 WT cell line HCC1954. It counts as cell-based. The conditions noted are these: Homo sapiens, HCC1954, viability, read-out: HCC1954 rel IC50. The text has this: (§1) Table 1 also indicates IC50 values in a viability assay for a non-isogenic pair of BRCA1 mutant (column 5-MDA-MB-436) and BRCA1 WT (column 6—HCC1954) cell lines. These values indicate the effect of treatment with compound on cell survival.

For test [3], the system named is monoubiquitinated PCNA. As to the kind of experiment: AlphaLISA assay measuring monoubiquitinated PCNA in MDA-MB-436. It counts as cell-based. To be noted: Homo sapiens, MDA-MB-436, monoubiquitinated PCNA, read-out: Alpha Lisa IC50. The source says:
Table 1 also indicates IC50 values for exemplary compounds in an AlphaLISA assay measuring monoubiquitinated PCNA in a BRCA1 mutant cell line (MDA-MB-436; column 7).

For test [4], the system named is MDA-MB-436. As to the kind of experiment: Viability assay, BRCA1 mutant cell line MDA-MB-436. To be noted: Homo sapiens, MDA-MB-436, viability, BRCA1 mutant MDA-MB-436; read-out: MDA-MB-436 rel IC50. It counts as cell-based.
Source text: as §1

Chain of USP1-UAF1 (O94782 whole entry): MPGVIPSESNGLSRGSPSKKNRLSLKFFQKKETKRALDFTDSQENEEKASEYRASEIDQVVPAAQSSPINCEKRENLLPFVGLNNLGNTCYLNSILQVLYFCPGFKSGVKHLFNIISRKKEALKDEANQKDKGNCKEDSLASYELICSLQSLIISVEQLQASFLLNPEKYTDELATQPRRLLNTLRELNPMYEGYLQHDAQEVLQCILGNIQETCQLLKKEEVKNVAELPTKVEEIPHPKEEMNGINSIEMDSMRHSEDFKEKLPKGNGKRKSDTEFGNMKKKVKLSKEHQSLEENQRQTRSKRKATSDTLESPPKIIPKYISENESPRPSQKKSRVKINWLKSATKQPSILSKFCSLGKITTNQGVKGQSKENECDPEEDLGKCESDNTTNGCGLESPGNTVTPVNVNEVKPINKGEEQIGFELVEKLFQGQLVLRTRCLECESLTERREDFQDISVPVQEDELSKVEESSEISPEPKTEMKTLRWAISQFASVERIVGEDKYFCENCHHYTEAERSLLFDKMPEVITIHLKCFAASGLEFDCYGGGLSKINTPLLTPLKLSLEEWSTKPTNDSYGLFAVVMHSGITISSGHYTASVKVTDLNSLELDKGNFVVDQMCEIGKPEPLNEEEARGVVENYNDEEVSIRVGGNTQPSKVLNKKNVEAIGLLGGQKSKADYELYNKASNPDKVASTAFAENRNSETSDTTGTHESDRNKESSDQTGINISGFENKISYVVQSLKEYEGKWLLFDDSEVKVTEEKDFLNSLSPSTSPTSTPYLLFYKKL
Chain of USP1-UAF1 (Q8TAF3 whole entry partner): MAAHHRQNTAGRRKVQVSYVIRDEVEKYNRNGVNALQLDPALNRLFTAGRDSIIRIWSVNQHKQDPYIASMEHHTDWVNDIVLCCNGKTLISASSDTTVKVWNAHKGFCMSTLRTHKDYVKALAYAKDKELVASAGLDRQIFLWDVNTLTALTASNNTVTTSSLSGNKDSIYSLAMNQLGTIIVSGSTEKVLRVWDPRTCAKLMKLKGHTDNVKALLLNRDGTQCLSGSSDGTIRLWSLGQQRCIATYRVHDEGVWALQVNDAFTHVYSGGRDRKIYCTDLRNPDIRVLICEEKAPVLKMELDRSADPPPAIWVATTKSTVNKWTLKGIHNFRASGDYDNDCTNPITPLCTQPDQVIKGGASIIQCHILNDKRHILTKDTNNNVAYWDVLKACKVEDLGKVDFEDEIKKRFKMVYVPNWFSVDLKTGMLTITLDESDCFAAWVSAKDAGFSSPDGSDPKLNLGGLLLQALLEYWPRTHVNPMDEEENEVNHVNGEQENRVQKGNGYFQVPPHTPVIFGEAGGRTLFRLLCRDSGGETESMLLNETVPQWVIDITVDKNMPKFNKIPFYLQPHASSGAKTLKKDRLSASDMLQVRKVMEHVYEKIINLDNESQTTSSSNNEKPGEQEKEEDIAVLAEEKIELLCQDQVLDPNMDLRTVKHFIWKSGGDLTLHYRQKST

One may read the IC50 as the concentration that gives 50% inhibition. In the case of `COCCn1c(=N)n(Cc2ccc(-c3nc(C(F)(F)F)cn3C)cc2)c2nc(-c3c(OC)ncnc3C3CC3)ncc21` [Example T-134, 2-(4-cyclopropyl-6-methoxy-pyrimidin-5-yl)-7-(2-methoxyethyl)-9-[[4-[1-methyl-4-(trifluoromethyl)imidazol-2-yl]phenyl]methyl]purin-8-imine], the IC50 in test [1] is 100 to 10000 nM; in test [2], no less than 10000 nM; in test [3] it was 250 to 10000 nM; in test [4] it was 100 to 250 nM.

As to `[2H]C([2H])([2H])Oc1ncnc(C2CC2)c1-c1ncc2c(n1)n(Cc1ccc(-c3nc(C(F)(F)F)cn3C(C)C)cc1)c(=N)n2CC(F)(F)F` [Example T-135, 2-[4-cyclopropyl-6-(trideuteriomethoxy)pyrimidin-5-yl]-9-[[4-[1-isopropyl-4-(trifluoromethyl)imidazol-2-yl]phenyl]methyl]-7-(2,2,2-trifluoroethyl)purin-8-imine], the IC50 in test [1] was 30 to 100 nM; in test [2], no less than 10000 nM; in test [3] it was 100 to 250 nM; in test [4], less than 100 nM.

Take `COc1ccnc(C2CC2)c1-c1ncc2c(n1)n(Cc1ccc(-n3nc(C(F)(F)F)cc3OC)cc1)c(=N)n2CC(F)(F)F` [Example T-136, 2-(2-cyclopropyl-4-methoxy-3-pyridyl)-9-[[4-[5-methoxy-3-(trifluoromethyl)pyrazol-1-yl]phenyl]methyl]-7-(2,2,2-trifluoroethyl)purin-8-imine]: the IC50 was 30 to 100 nM in test [1], no less than 10000 nM in test [2], 100 to 250 nM in test [3] and 100 to 250 nM in test [4].

As for `COc1ncnc(C2(C)CC2)c1-c1ncc2c(n1)n(Cc1ccc(-c3nc(C(F)(F)F)cn3C)cc1)c(=N)n2CC(F)(F)F` [Example T-137, 2-[4-methoxy-6-(1-methylcyclopropyl)pyrimidin-5-yl]-9-[[4-[1-methyl-4-(trifluoromethyl)imidazol-2-yl]phenyl]methyl]-7-(2,2,2-trifluoroethyl)purin-8-imine], the IC50 in test [1] is 100 to 10000 nM; in test [2] it was no less than 10000 nM; in test [3] it was 100 to 250 nM; in test [4], 100 to 250 nM.

On to `CCOc1cc(C(F)(F)F)nn1-c1ccc(Cn2c(=N)n(CC(F)(F)F)c3cnc(-c4c(C(F)(F)F)cnn4C)nc32)cc1` [Example T-138, 9-[[4-[5-ethoxy-3-(trifluoromethyl)pyrazol-1-yl]phenyl]methyl]-2-[2-methyl-4-(trifluoromethyl)pyrazol-3-yl]-7-(2,2,2-trifluoroethyl)purin-8-imine], for which the IC50 in test [1] lay in the range of 30 to 100 nM; in test [2], 250 to 10000 nM; in test [3] it was 100 to 250 nM; in test [4], 100 to 250 nM.

With `CCn1c(=N)n(Cc2ccc(-c3nc(C(F)(F)F)cn3C)cc2)c2nc(-c3c(OC)ncnc3C3CC3)ncc21` [Example T-139, 2-(4-cyclopropyl-6-methoxy-pyrimidin-5-yl)-7-ethyl-9-[[4-[1-methyl-4-(trifluoromethyl)imidazol-2-yl]phenyl]methyl]purin-8-imine], the IC50 is 30 to 100 nM in test [1], no less than 10000 nM in test [2], less than 100 nM in test [3] and less than 100 nM in test [4].

In the case of `Cn1cc(C(F)(F)F)nc1-c1ccc(Cn2c(=N)n(C)c3cnc(-c4c(OC(F)(F)F)ccnc4C4CC4)nc32)cc1` [Example T-140, 2-[2-cyclopropyl-4-(trifluoromethoxy)-3-pyridyl]-7-methyl-9-[[4-[1-methyl-4-(trifluoromethyl)imidazol-2-yl]phenyl]methyl]purin-8-imine], the IC50 in test [1] was 30 to 100 nM; in test [2] it was no less than 10000 nM; in test [3] it was less than 100 nM; in test [4] it was less than 100 nM.

On to `COc1nccc(C2CC2)c1-c1ncc2c(n1)n(Cc1ccc(-c3nc(C(F)(F)F)cn3C)cc1)c(=N)n2CC(F)(F)F` [Example T-141, 2-(4-cyclopropyl-2-methoxy-3-pyridyl)-9-[[4-[1-methyl-4-(trifluoromethyl)imidazol-2-yl]phenyl]methyl]-7-(2,2,2-trifluoroethyl)purin-8-imine], for which the concentration for half-maximal inhibition (IC50) in test [1] was 100 to 10000 nM; in test [2], no less than 10000 nM; in test [3], 100 to 250 nM; in test [4] it was 100 to 250 nM.

In the case of `COc1ncnc(C2CC2)c1-c1ncc2c(n1)n([C@@H](C)c1ccc(-c3nc(C(F)(F)F)cn3C)cc1)c(=N)n2C` [Example T-142, 2-(4-cyclopropyl-6-methoxy-pyrimidin-5-yl)-7-methyl-9-[(1S)-1-[4-[1-methyl-4-(trifluoromethyl)imidazol-2-yl]phenyl]ethyl]purin-8-imine], the half-inhibitory concentration (IC50) in test [1] is 100 to 10000 nM; in test [2], no less than 10000 nM; in test [3], 100 to 250 nM; in test [4], 100 to 250 nM.

On to `COc1ncnc(C2CC2)c1-c1ncc2c(n1)n([C@H](C)c1ccc(-c3nc(C(F)(F)F)cn3C)cc1)c(=N)n2CC(F)(F)F` [Example T-143, (R)-2-(4-cyclopropyl-6-methoxypyrimidin-5-yl)-9-(1-(4-(1-methyl-4-(trifluoromethyl)-1H-imidazol-2-yl)phenyl)ethyl)-7-(2,2,2-trifluoroethyl)-7,9-dihydro-8H-purin-8-imine], for which the IC50 in test [1] was 30 to 100 nM; in test [2], no less than 10000 nM; in test [3], less than 100 nM; in test [4], less than 100 nM.

With `COc1ncnc(C(F)(F)F)c1-c1ncc2c(n1)n(Cc1ccc(-c3nc(C(F)(F)F)cn3C)cc1)c(=N)n2CC(F)(F)F` [Example T-144, 2-[4-methoxy-6-(trifluoromethyl)pyrimidin-5-yl]-9-[[4-[1-methyl-4-(trifluoromethyl)imidazol-2-yl]phenyl]methyl]-7-(2,2,2-trifluoroethyl)purin-8-imine], the concentration for half-maximal inhibition (IC50) was 30 to 100 nM in test [1], no less than 10000 nM in test [2], 100 to 250 nM in test [3] and 100 to 250 nM in test [4].

With `COc1ncnc(C(F)(F)F)c1-c1ncc2c(n1)n(Cc1ccc(-n3nc(C(F)(F)F)cc3OC)cc1)c(=N)n2CC(F)(F)F` [Example T-145, 9-[[4-[5-methoxy-3-(trifluoromethyl)pyrazol-1-yl]phenyl]methyl]-2-[4-methoxy-6-(trifluoromethyl)pyrimidin-5-yl]-7-(2,2,2-trifluoroethyl)purin-8-imine], the concentration for half-maximal inhibition (IC50) in test [1] is 30 to 100 nM; in test [2], 250 to 10000 nM; in test [3], less than 100 nM; in test [4], 100 to 250 nM.

Turning to `COc1nc(C)nc(C2CC2)c1-c1ncc2c(n1)n(Cc1ccc(-c3nc(C(F)(F)F)cn3C)cc1)c(=N)n2C` [Example T-146, 2-(4-cyclopropyl-6-methoxy-2-methyl-pyrimidin-5-yl)-7-methyl-9-[[4-[1-methyl-4-(trifluoromethyl)imidazol-2-yl]phenyl]methyl]purin-8-imine], the IC50 in test [1] was 30 to 100 nM; in test [2] it was no less than 10000 nM; in test [3], less than 100 nM; in test [4], less than 100 nM.

`Cn1cc(C(F)(F)F)nc1-c1ccc(Cn2c(=N)n(CC(F)(F)F)c3cnc(-c4c(OCF)ncnc4C4CC4)nc32)cc1` [Example T-147, 2-[4-cyclopropyl-6-(fluoromethoxy)pyrimidin-5-yl]-9-[[4-[1-methyl-4-(trifluoromethyl)imidazol-2-yl]phenyl]methyl]-7-(2,2,2-trifluoroethyl)purin-8-imine]: the IC50 in test [1] is 30 to 100 nM; in test [2] it was no less than 10000 nM; in test [3] it was less than 100 nM; in test [4], 100 to 250 nM.
